# ± gives the expanded uncertainty stated by the source.
# Conditions: Crystal; DTA
row,SMILES,Normal melting temperature [°C]
1,CCCCCCCCCCCC(=O)O [dodecanoic acid],44.92 ± 0.5
2,CCCCCCCCCCCCCCCC(=O)O [hexadecanoic acid],64.07 ± 0.5
3,CCCCCCCCCC(=O)O [decanoic acid],32.31 ± 0.5

# Results, then the compound that gave them:
row,Normal melting temperature [°C],SMILES
1,16.48 ± 0.5,CCCCCCCC(=O)O [octanoic acid]
2,55.73 ± 0.5,CCCCCCCCCCCCCC(=O)O [tetradecanoic acid]
3,70.83 ± 0.5,CCCCCCCCCCCCCCCCCC(=O)O [octadecanoic acid]

# Reference: the NIST ThermoML archive (doi:10.1016/j.tca.2009.06.018)
